Measurements taken from paper PMC9774939, “Optimization of Pyrazole Compounds as Antibiotic Adjuvants Active against Colistin- and Carbapenem-Resistant Acinetobacter baumannii” (Antibiotics, 2022).

How the values were obtained:
[1] = test system: Klebsiella pneumoniae ATCC 13833; assay: MAC determination in the presence of subinhibitory colistin; format: cell-based; settings: for MAC Kpn: in the presence of 0.5 × MIC colistin; for MIC/MAC Ratio Kpn: minimal ratio of MIC of compound alone to MAC with 0.5 × MIC colistin
Experimental: (§1) The minimum inhibitory concentration (MIC) and minimum bactericidal concentration (MBC) of the compounds were determined in triplicate using Mueller–Hinton broth and a bacterial inoculum of 5 × 10^5 CFU/mL, as recommended by the CLSI [26]. The minimum antibacterial concentration (MAC) of the compounds was determined in the presence of a fixed and subinhibitory concentration of colistin (as mentioned above).

[2] = test system: Acinetobacter baumannii ATCC 17978; assay: MAC determination in the presence of subinhibitory colistin; format: cell-based; parameters: key to MAC Aba: -: No synergistic activity; settings: for MAC Aba: in the presence of 0.5 × MIC colistin
Experimental: as §1

Escherichia coli CCUG^T = assay: as above; format: cell-based; settings: for MAC Eco: in the presence of 0.5 × MIC colistin; for MIC/MAC Ratio Eco: minimal ratio of MIC of compound alone to MAC with 0.5 × MIC colistin
Experimental: as §1

Structure (SMILES) | melting point | also measured
CCOC(=O)[C@@H](NC(=O)c1cnn(-c2ccccc2)c1-n1cccc1)C(C)C [Compound 13, Ethyl (S)-3-Methyl-2-[[[1-phenyl-5-(1H-pyrrol-1-yl)-1H-pyrazol-4-yl]carbonyl]amino]butanoate] | 75 to 78 °C | MAC Kpn [1]: 32 µg/mL; MIC/MAC Ratio Kpn [1]: 16; MAC Aba [2]: -; MAC Eco (Escherichia coli CCUG^T): 64 µg/mL; MIC/MAC Ratio Eco (Escherichia coli CCUG^T): 8
Cc1c(C(=O)N(CCO)Cc2ccccc2)nn(-c2ccc(Cl)cc2)c1-n1cccc1 [Compound 31, N-Benzyl-1-(4-chlorophenyl)-N-(2-hydroxyethyl)-4-methyl-5-(1H-pyrrol-1-yl)-1H-pyrazole-3-carboxamide] |  | MAC Kpn [1]: 16 µg/mL; MIC/MAC Ratio Kpn [1]: 32; MAC Aba [2]: 32 µg/mL; MIC/MAC Ratio Aba ([2]; minimal ratio of MIC of compound alone to MAC with 0.5 × MIC colistin): 16; MAC Eco (Escherichia coli CCUG^T): 32 µg/mL; MIC/MAC Ratio Eco (Escherichia coli CCUG^T): 16
CCOC(=O)c1ccc(NC(=O)c2nn(-c3ccc(Cl)cc3)c(-n3cccc3)c2C)cc1 [Compound 32, Ethyl 4-[[[1-(4-Chlorophenyl)-4-methyl-5-(1H-pyrrol-1-yl)-1H-pyrazol-3-yl]carbonyl]amino]benzoate] | 168 to 170 °C | 
Cc1c(C(=O)NCc2ccncc2)nn(-c2ccc(Cl)cc2)c1-n1cccc1 [Compound 33, 1-(4-Chlorophenyl)-4-methyl-N-(pyridin-4-ylmethyl)-5-(1H-pyrrol-1-yl)-1H-pyrazole-3-carboxamide] | 189 to 193 °C | 
Cc1c(C(=O)N(C)Cc2ccccc2)nn(-c2ccc(Cl)cc2)c1-n1cccc1 [Compound 34, N-Benzyl-1-(4-chlorophenyl)-N,4-dimethyl-5-(1H-pyrrol-1-yl)-1H-pyrazole-3-carboxamide] | 104 to 108 °C | 
N#Cc1c(C(=O)NCc2ccncc2)nn(-c2ccc(Cl)cc2)c1-n1cccc1 [Compound 35, 1-(4-Chlorophenyl)-4-cyano-N-(pyridin-4-ylmethyl)-5-(1H-pyrrol-1-yl)-1H-pyrazole-3-carboxamide] | 85 to 88 °C | 
Cc1c(C(=O)Nc2nc(-c3ccc(F)cc3)cs2)nn(-c2ccc(Cl)c(Cl)c2)c1-n1cccc1 [Compound 37, 1-(3,4-Dichlorophenyl)-N-[4-(4-fluorophenyl)thiazol-2-yl]-4-methyl-5-(1H-pyrrol-1-yl)-1H-pyrazole-3-carboxamide] | 207 to 210 °C | 
Cc1c(C(=O)NCc2ccc3c(c2)OCO3)nn(-c2ccc(Cl)c(Cl)c2)c1-n1c(C)ccc1C [Compound 38, N-(Benzo[d][1,3]dioxol-5-ylmethyl)-1-(3,4-dichlorophenyl)-4-methyl-5-(2,5-dimethyl-1H-pyrrol-1-yl)-1H-pyrazole-3-carboxamide] | 141 to 145 °C | 
COC(=O)c1cccc(NC(=O)c2nn(-c3ccc(Cl)cc3)c(-n3cccc3)c2C)c1 [Compound 41, Methyl 3-[[[1-(4-Chlorophenyl)-4-methyl-5-(1H-pyrrol-1-yl)-1H-pyrazol-3-yl]carbonyl]amino]benzoate] | 158 to 160 °C | 
COC(=O)c1ccccc1NC(=O)c1nn(-c2ccc(Cl)cc2)c(-n2cccc2)c1C [Compound 43, Methyl 2-[[[1-(4-Chlorophenyl)-4-methyl-5-(1H-pyrrol-1-yl)-1H-pyrazol-3-yl]carbonyl]amino]benzoate] | 217 to 219 °C | 
Cc1c(C(=O)Nc2ccc(S(N)(=O)=O)cc2)nn(-c2ccc(Cl)cc2)c1-n1cccc1 [Compound 46, 1-(4-Chlorophenyl)-4-methyl-5-(1H-pyrrol-1-yl)-N-(4-sulfamoylphenyl)-1H-pyrazole-3-carboxamide] | 238 to 239 °C | 
CSc1ccc(NC(=O)c2nn(-c3ccc(Cl)cc3)c(-n3cccc3)c2C)cc1 [Compound 48, 1-(4-Chlorophenyl)-N-(4-methylthiophenyl)-4-methyl-5-(1H-pyrrol-1-yl)-1H-pyrazole-3-carboxamide] | 102 to 105 °C | 
